Reference: patent US7803930B2, “Antisense modulation of apolipoprotein B-expression” (Isis Pharmaceuticals, Inc., priority 2002, dated 2010)
In the oligonucleotide strings, read from the 5' end, every base follows the letter of its sugar. An asterisk marks phosphorothioate; unmarked linkages are phosphodiester. Other units and linkages are bracketed, terminal groups are in braces. A string of capitals states the bases alone. e = 2'-O-(2-methoxyethyl) (MOE); [5mC] = 5-methylcytosine; d = 2'-deoxy (DNA)

What was measured:
apolipoprotein B mRNA [1] = test: ob/ob mice (Example 50): apolipoprotein B mRNA levels in liver; type: in vivo, mouse; details: high fat high cholesterol diet, 50 mg/kg i.p. twice a week, six weeks
Experimental: (§1) Ob/ob mice receiving a high fat, high cholesterol diet (60% kcal fat supplemented with 0.15% cholesterol) were treated with one of several oligonucleotides to evaluate their effect on apolipoprotein B-related phenotypic endpoints in ob/ob mice. After overnight fasting, mice from each group were dosed intraperitoneally twice a week with 50 mg/kg of ISIS 147483 (SEQ ID NO: 79), or 147764 (SEQ ID NO: 109), or the controls ISIS 116847 (SEQ ID NO: 857), or 141923 (SEQ ID NO: 858), or saline for six weeks. At study termination and forty eight hours after the final injections, animals were sacrificed and evaluated for target mRNA levels in liver, cholesterol and triglyceride levels, liver enzyme levels, serum glucose levels, and PTEN levels.

[2] = ob/ob mice (Example 50): cholesterol, lipid, triglyceride, liver enzyme and glucose levels; type: in vivo, mouse; details: high fat high cholesterol diet, 50 mg/kg i.p. twice a week, six weeks
Experimental: as §1

[3] = system: mouse apolipoprotein B mRNA; test: High fat fed mice (Example 65): mouse apolipoprotein B mRNA and serum cholesterol levels; type: in vivo
Experimental: (§2) Male C57Bl/6 mice were divided into the following groups, consisting of 5 animals each: (1) mice on a lean diet, injected with saline (lean control); (2) mice on a high fat diet; (3) mice on a high fat diet injected with 50 mg/kg of the control oligonucleotide 141923 (SEQ ID NO: 858); (4) mice on a high fat diet given 20 mg/kg atorvastatin calcium (Lipitor®, Pfizer Inc.); (5) mice on a high fat diet injected with 10, 25 or 50 mg/kg ISIS 147764 (SEQ ID NO: 109). Saline and oligonucleotide treatments were administered intraperitoneally twice weekly for 6 weeks. Atorvastatin was administered daily for 6 weeks. At study termination, liver samples were isolated from each animal and RNA was isolated for Northern blot qualitative assessment, DNA microarray and quantitative real-time PCR. Northern blot assessment and quantitative real-time PCR were performed as described by other examples herein.
(§3) Mouse apolipoprotein B mRNA and serum cholesterol levels, measured as described herein, were evaluated to confirm antisense inhibition by ISIS 147764 and ISIS 147483. […] The 50 mg/kg dose of ISIS 147483 increased ALT and AST levels.

[4] = High fat fed mice (Example 65): ALT and AST levels; type: in vivo, mouse
Experimental: as §2, §3

apolipoprotein B mRNA [5] = test: Lean mice, 6 weeks (Example 66): apolipoprotein B mRNA; type: in vivo, mouse
Experimental: (§4) The accumulation of lipids in liver tissue was also evaluated in lean mice. Male […] mice (Charles River Laboratories (Wilmington, Mass.) at 6 to 7 weeks of age were maintained on a standard rodent diet and were treated twice weekly with intraperitoneal injections of 25 or 50 mg/kg 147764 (SEQ ID NO: 109) or 147483 (SEQ ID NO: 79) for 6 weeks. Saline treated animals served as controls. Each treatment group was comprised of 4 animals. Animals were sacrificed after the 6 week treatment period, at which point liver tissue and serum were collected.
Apolipoprotein B mRNA levels were measured by real-time PCR as described by other examples herein. The data, shown in Table 51, represent the average of 4 animals and are presented as inhibition relative to saline treated controls.

[6] = Lean mice, 6 weeks (Example 66): serum lipids and liver enzymes; type: in vivo, mouse; details: serum
Experimental: as §4
Total cholesterol, LDL-cholesterol, HDL-cholesterol and triglycerides in serum were measured by routine clinical analysis using an Olympus Clinical Analyzer (Olympus America Inc., Melville, N.Y.). The liver enzymes ALT and […] in serum were also measured using the Olympus Clinical Analyzer.

**Q.** Which “apolipoprotein B mRNA levels” value (apolipoprotein B mRNA [1]) does the source give for “ATGTCAATGCCACATGTCCA (antisense eA*eT*eG*eT*e[5mC]*dA*dA*dT*dG*d[5mC]*d[5mC]*dA*d[5mC]*dA*dT*eG*eT*e[5mC]*e[5mC]*eA) [ISIS 147483]” here?
**A.** Its value is “able to lower”.

**Q.** And the “glucose, cholesterol, and triglyceride levels” value [2]?
**A.** Its value is “able to lower”.

**Q.** What about the “mouse apolipoprotein B mRNA and serum cholesterol levels” value [3] of the same sequence?
**A.** The value was “lowered in a dose-dependent manner”.

**Q.** What about the “ALT and AST levels” value ([4]; 50 mg/kg) of the same sequence?
**A.** Its value is “increased”.

**Q.** And the “ALT or AST levels” value ([4]; 10 and 25 mg/kg)?
**A.** Its value is “did not significantly elevate”.

**Q.** And the “% Inhibition apolipoprotein B mRNA” value (apolipoprotein B mRNA [5]; 25 mg/kg i.p. twice weekly)?
**A.** Its value is 79%.

**Q.** And the “% Inhibition apolipoprotein B mRNA” value (apolipoprotein B mRNA [5]; 50 mg/kg i.p. twice weekly)?
**A.** The value was 91%.

**Q.** What about the “inhibition of apolipoprotein B mRNA expression” value (apolipoprotein B mRNA [5]; 25 or 50 mg/kg i.p. twice weekly) of the same sequence?
**A.** Its value is “in a dose-dependent manner”.

**Q.** What about the HDL-cholesterol ([6]; 25 mg/kg i.p. twice weekly) of the same sequence?
**A.** The HDL-cholesterol was 117 mg/dL.

**Q.** And the LDL-cholesterol ([6]; 25 mg/kg i.p. twice weekly)?
**A.** Its LDL-cholesterol is 26 mg/dL.

**Q.** What about the “Liver Enzymes ALT” value ([6]; 25 mg/kg i.p. twice weekly) of the same sequence?
**A.** The value was 73 IU/L.

**Q.** And the “Liver Enzymes AST” value ([6]; 25 mg/kg i.p. twice weekly)?
**A.** The value was 78 IU/L.

**Q.** What about the Total cholesterol ([6]; 25 mg/kg i.p. twice weekly) of the same sequence?
**A.** Its Total cholesterol is 153 mg/dL.

**Q.** And the Triglycerides ([6]; 25 mg/kg i.p. twice weekly)?
**A.** Its Triglycerides is 138 mg/dL.

**Q.** What about the HDL-cholesterol ([6]; 50 mg/kg i.p. twice weekly) of the same sequence?
**A.** The HDL-cholesterol was 131 mg/dL.

**Q.** What about the LDL-cholesterol ([6]; 50 mg/kg i.p. twice weekly) of the same sequence?
**A.** Its LDL-cholesterol is 39 mg/dL.

**Q.** What about the “Liver Enzymes ALT” value ([6]; 50 mg/kg i.p. twice weekly) of the same sequence?
**A.** The value was 57 IU/L.

**Q.** What about the “Liver Enzymes AST” value ([6]; 50 mg/kg i.p. twice weekly) of the same sequence?
**A.** Its value is 72 IU/L.

**Q.** What about the Total cholesterol ([6]; 50 mg/kg i.p. twice weekly) of the same sequence?
**A.** Its Total cholesterol is 183 mg/dL.

**Q.** And the Triglycerides ([6]; 50 mg/kg i.p. twice weekly)?
**A.** Its Triglycerides is 127 mg/dL.
